US20190166841A1, “Method for Controlling PPO Resistant Weeds” (BASF SE, priority 2016, published 2019)

Experiments:
Assay type in all cases: in vivo
[1] = tested on: Amaranthus tamariscinus (Common waterhemp, AMATA), PPO resistant biotype 3 that was shown to contain the ΔG210 mutation (w.4); assay: Greenhouse herbicidal activity test, PPO resistant waterhemp w.4; details: use rate 4 g/ha; PPO resistant biotype 3 with ΔG210 mutation; scale 0 to 100
From the text: (§1) The culture containers used were plastic flowerpots containing loamy sand with approximately 3.0% of humus as the substrate. The seeds of the test plants were sown separately for each species and/or resistant biotype. For the pre-emergence treatment, the active ingredients, which had been suspended or emulsified in water, were applied directly after sowing by means of finely distributing nozzles. The containers were irrigated gently to promote germination and growth and subsequently covered with transparent plastic hoods until the plants had rooted. This cover caused uniform germination of the test plants, unless this had been impaired by the active ingredients. For the post-emergence treatment, the test plants were first grown to a height of 3 to 15 cm, depending on the plant habit, and only then treated with the active ingredients which had been suspended or emulsified in water. For this purpose, the test plants were either sown directly and grown in the same containers, or they were first grown separately as seedlings and transplanted into the test containers a few days prior to treatment. Depending on the species, the plants were kept at 10-25° C. or 20-35° C., respectively. The test period extended over 2 to 4 weeks. During this time, the plants were tended, and their response to the individual treatments was evaluated. The evaluation was carried out by using a scale from 0 to 100. […]

[2] = tested on: Amaranthus tamariscinus (Common waterhemp, AMATA), PPO resistant biotype 1 (w.2); assay: Greenhouse herbicidal activity test, PPO resistant waterhemp w.2; details: use rate 4 g/ha, scale 0 to 100
From the text: as §1

[3] = tested on: Amaranthus tamariscinus (Common waterhemp, AMATA), Sensitive biotype (w.1); assay: Greenhouse herbicidal activity test, sensitive waterhemp w.1; details: use rate 4 g/ha, scale 0 to 100 (100 = complete destruction, 0 = no damage)
From the text: as §1

[4] = tested on: Amaranthus tamariscinus (Common waterhemp, AMATA), PPO resistant biotype 2 (w.3); assay: Greenhouse herbicidal activity test, PPO resistant waterhemp w.3; details: use rate 4 g/ha, scale 0 to 100
From the text: as §1

## CCS(=O)(=O)Nc1cc(-n2nc(C(F)(F)F)n(C)c2=O)c(F)cc1C(N)=S [(I).1, bencarbazone]
[1]
  Weed control (%) w.4: 82%
[2]
  Weed control (%) w.2: 100%
[3]
  Weed control (%) w.1: 92%
[4]
  Weed control (%) w.3: 100%
